In patent EP0001978A1, “A derivative of thiazolidine-4-carboxylic acid, method for the preparation and pharmaceutical compositions comprising the compound” (Santen Pharmaceutical Co., Ltd, priority 1977, dated 1979):

Columns and labels:
[1] = target: T1, angiotensin I-converting enzyme (Cavia porcellus, UniProt H0UWL7); assay: Bioassay: contractile response of isolated guinea-pig ileum to angiotensin I; type: cell-based; settings: angiotensin I 0.125µg/ml, compound added 5 minutes before; for inhibition at 1 µM: final concentration 10^-6 M
T1 construct: Preparation of isolated guinea-pig ileum was made and suspended in the organ bath; from tissue; host or cells: isolated guinea-pig ileum
T1 sequence (H0UWL7 33-1302): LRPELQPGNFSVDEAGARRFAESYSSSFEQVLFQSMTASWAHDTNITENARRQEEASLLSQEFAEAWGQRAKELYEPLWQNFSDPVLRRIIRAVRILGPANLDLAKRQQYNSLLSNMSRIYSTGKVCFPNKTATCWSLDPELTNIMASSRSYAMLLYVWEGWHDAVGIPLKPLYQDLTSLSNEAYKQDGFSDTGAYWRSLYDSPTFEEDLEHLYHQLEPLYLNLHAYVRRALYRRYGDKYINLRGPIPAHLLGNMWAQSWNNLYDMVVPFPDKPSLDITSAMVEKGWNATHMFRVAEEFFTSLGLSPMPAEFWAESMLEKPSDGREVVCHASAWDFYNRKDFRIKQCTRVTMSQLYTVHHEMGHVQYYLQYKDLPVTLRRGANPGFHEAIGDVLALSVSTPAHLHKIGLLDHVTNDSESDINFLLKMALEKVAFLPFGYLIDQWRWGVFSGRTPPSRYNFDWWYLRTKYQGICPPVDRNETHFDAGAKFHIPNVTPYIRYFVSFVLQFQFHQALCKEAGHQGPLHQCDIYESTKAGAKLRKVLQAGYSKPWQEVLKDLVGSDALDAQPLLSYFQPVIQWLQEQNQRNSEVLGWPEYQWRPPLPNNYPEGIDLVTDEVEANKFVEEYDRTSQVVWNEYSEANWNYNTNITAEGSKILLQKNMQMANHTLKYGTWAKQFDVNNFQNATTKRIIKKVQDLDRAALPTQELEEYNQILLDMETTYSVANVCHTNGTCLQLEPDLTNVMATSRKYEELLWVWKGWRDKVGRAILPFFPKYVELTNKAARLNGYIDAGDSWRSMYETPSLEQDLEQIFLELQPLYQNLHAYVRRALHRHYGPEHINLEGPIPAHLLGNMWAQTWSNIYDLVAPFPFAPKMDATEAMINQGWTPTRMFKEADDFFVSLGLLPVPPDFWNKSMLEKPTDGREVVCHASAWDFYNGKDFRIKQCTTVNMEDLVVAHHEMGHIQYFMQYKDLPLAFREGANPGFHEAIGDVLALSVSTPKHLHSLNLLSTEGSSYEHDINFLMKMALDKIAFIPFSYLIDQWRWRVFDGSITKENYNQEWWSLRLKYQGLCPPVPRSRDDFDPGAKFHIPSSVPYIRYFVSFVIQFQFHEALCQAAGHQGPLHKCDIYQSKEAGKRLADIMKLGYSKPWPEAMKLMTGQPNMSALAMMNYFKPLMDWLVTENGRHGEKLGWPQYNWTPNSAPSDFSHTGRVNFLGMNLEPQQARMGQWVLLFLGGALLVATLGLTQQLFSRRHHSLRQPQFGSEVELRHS
Procedure: In the present study, we adopted the bioassay for contractile response of iselated guinea-pig ileum to angiotensin I.
(§1) Measurement of inhibitory activity of angiotensin I-converting enzyme Preparation of isolated guinea-pig ileum was made and suspended in the organ bath containing 20ml of Tyrode's solution gassed 95% 02 + 5% CO2 at 30°C. The contraction induced by angiotensin I (0.125µg/ml) given at intervals of 10 minutes was recorded on a recticerder (Nihon Koden) for 90 seconds using FD pick up (ST-IT-H, Nihon Koden) .
(§2) The test compounds were added to the bath 5 minutes before the addition of angiotensin I.
The inhibitory activity of angiotensin I-converting enzyme was calculated by the following formula: [formula] • A: Contractile intensity of angiotensin I before addition of the compound • B: Contractile intensity of angiotensin I after addition of the compound

[2] = system: male ddy-SLC strain rats; assay: Acute toxicity test (Miller and Tainter method); type: in vivo; settings: oral, subcutaneous or intravenous; 30% suspension or 30% solution (pH 7.0); result in words
Procedure: Acute toxicity of the compound of this invention, (4R)-3-[(2S)-3-mercapto-2-methylpropanoyl]-4-thiazolidinecarboxylic acid, is shown in Table 3.
The male ddy-SLC strain rats (5 weeks of age, weighing […]) were placed in a breeding room of constant temperature and humidity (24+1°C, 55+5%) and fed freely pellet diet (CE-2, Clea Japan Inc.) and water for a week. The rats showing the normal growth were selected for the experiment.
30% suspension or 30% solution (pH 7.0) was administered orally, subcutaneously or intravenously and the toxicity was calculated by the Miller and Tainter method.

[3] = system: angiotensin II; assay: Contractile response of isolated guinea-pig ileum to angiotensin II; type: cell-based; settings: Cavia porcellus, final concentration 10^-5 M
Procedure: as §1, §2
(§3) The influence of the compounds on the contractile response of isolated guinea-pig ileum to angiotensin II was examined in the same manner as above. Further, augmentation of the contractile response to bradykinin by the test compounds was studied by the above-mentioned method from the fact that kininase II which destroys bradykinin is thought to be identical with angiotensin I-converting enzyme.

[4] = target: T2, kininase II (Cavia porcellus, UniProt H0UWL7); assay: Augmentation of contractile response of isolated guinea-pig ileum to bradykinin; type: cell-based
T2 construct: Preparation of isolated guinea-pig ileum was made and suspended in the organ bath; from tissue; host or cells: isolated guinea-pig ileum
T2 sequence (H0UWL7 33-1302): T1 sequence (H0UWL7 33-1302)
Procedure: as §1, §2, §3

| inhibition at 10 µM ([1]; final concentration 10^-5 M) | Structure (SMILES) | inhibition at 1 µM [1] | inhibition at 0.1 µM ([1]; final concentration 10^-7 M) | Acute toxicity [2] | inhibition at 10 µM [3] | Augmentation to BK (%) ([4]; final concentration 10^-7 M) | Augmentation to BK (%) ([4]; final concentration 10^-8 M) | Augmentation to BK (%) ([4]; final concentration 10^-9 M) |
| --- | --- | --- | --- | --- | --- | --- | --- | --- |
| – | C[C@H](CS)C(=O)N1CSC[C@H]1C(=O)O [Compound A, (4R)-3-[(2S)-3-mercapto-2-methylpropanoyl]-4-thiazolidinecarboxylic acid] | 72.6% | 38.1% | lower toxicity | 0% | 125.3% | 60.4% | 22.1% |
| 59.3% | C[C@@H](CS)C(=O)N1CSC[C@H]1C(=O)O [Compound B, (4R)-3-[(2R)-3-mercapto-2-methylpropanoyl]-4-thiazolidinecarboxylic acid, reference compound] | 24.7% | – | – | 0% | 78.3% | 16.8% | – |
